Results on four molecules are retold here after patent publication US4576956A, “Iodo propargylaminoisoxazoles as fungicides” (Shionogi & Co., Ltd., priority 1982, dated 1986).

Test [1] concerns fungi. The following applies: prior art, Japanese patent publications; cited from earlier work.
The subject of test [2] is Aspergillus fumigatus. The experiment in a line: Test A-1 Anti-fungal Activity (MIC), microwell dilution. It is filed as cell-based. Particulars: in vitro, 1×10^5 cells/ml. How it is done: (§1) Test A-1 Anti-fungal Activity (MIC)
(§2) The concentration of the test cells was 1×10^5 cells/ml and the activity was measured by a microwell dilution method. The structure of the test compounds is referred to in the Examples.

Test [3] deals with Candida albicans M-9. Described as above. It counts as cell-based. Particulars: M9, C. albicans M-9, in vitro, 1×10^5 cells/ml. How it is done:
as §1, §2

The test system of test [4] is Trichophyton asteroides. The test is described as above. It counts as cell-based. The following applies: T. asteroides, in vitro, 1×10^5 cells/ml. As to the method:
as §1
The following results (Table 1) were obtained in an anti-fungal activity test in vitro against Aspergillus fumigatus, Candida albicans M-9 and Trichophyton asteroides. The concentration of the test cells was 1×10^5 cells/ml and the activity was measured by a microwell dilution method. The structure of the test compounds is referred to in the Examples.

Test [5] relates to Sclerotinia sclerotiorum. The experiment in a line: Test B-2 Control Test to Sclerotinia Rot of Cucumber. It counts as in vivo. The following applies: 48 h, 2 days, read-out: Percent Disease Control. As to the method:
Test B-2 Control Test to Sclerotinia Rot of Cucumber
Cucumber seedlings were sprayed with 2.5 ml of a test solution in the same manner as in Test B-1. Afterthe spraying, the seedlings were kept at 25°-26° C. for a day and three disks of 4 mm in diameter containing mycelia of Sclerotinia sclerotiorum were put on a primary leaf and then 10 μl of PD broth were dropped on the disks. The treated seedlings were kept ina greenhouse (20° C.) for 2 days and then the diameters of the disease spots were measured by a pair of slide callipers. [formula]

For test [6], the system named is Colletotrichum lagenarium. The test can be described thus: Test B-4 Control Test to Anthracnose of Cucumber. It is filed as in vivo. Particulars: 500 ppm, 3 + 3 days. How it is done:
Test B-4 Control Test to Anthracnose of Cucumber Each cucumber seedling was sprayed with 2.5 ml of a test solution in the same manner as in Test B-1. After the spraying, the seedlings were kept at 25°-26° C. for a day and were inoculated with five filter-paper disks of 6 mm in diameter saturated with a conidium suspension of Colletotrichum lagenarium at a concentration of 1×10^6 conidia/ml. The treated seedlings were kept in a greenhouse (25° C.) for 3 days and further kept at below 25° C. for 3 days. Standard of Evaluation The same as noted in Test B-3.

In test [7] the test system is Fusarium oxysporum. The test can be described thus: Test B-6 Control Test to Damping-off of Cucumber. It counts as in vivo. The following applies: F*, 500 ppm, soil drench, 2 weeks. As to the method:
(§3) Test B-6 Control Test to Damping-off of Cucumber
(§4) Twenty cucumber seeds were sown into sterilized soil (150 ml) in a pot of 9 cm in diameter. The fungi, Phythium aphanidermatum, Fusarium oxysporum and Rhizoctonia solani were cultured on a wheat bran medium for 5 days and an additional 2 days thereafter were mixed with sterilized soil. The surface of the sown spots was covered with the above culture medium. A test solution (30 ml) at a prescribed concentration was poured into each pot. The pots were kept in a greenhouse (28° C.) for 1 week in the case of Pythium and Rhizoctonia and for 2 weeks in the case of Fusarium.
(§5) The disease degree was observed and percent disease degree was calculated by the following formula: […]
(§6) (1) No germination . . . x 4
(§7) (2) Germed but withered . . . x 3
(§8) (3) Disordered in 1/3 or more . . . x 2
(§9) (4) Disordered in less than 1/3 . . . x 1
(§10) (5) Not damaged . . . x 0 [formula]
(§11) The percent disease control was calculated in the same manner as in Test B-1.

Test [8] has as its system Pythium aphanidermatum. The experiment in a line: Test B-6 Control Test to Damping-off of Cucumber. It counts as in vivo. The following applies: P*, 500 ppm, soil drench, 1 week. How it is done:
as §3, §4, §5, §6, §7, §8, §9, §10, §11

Test [9] has as its system Rhizoctonia solani. The experiment in a line: Test B-6 Control Test to Damping-off of Cucumber. It is filed as in vivo. The following applies: R*, 500 ppm, soil drench, 1 week. How it is done:
as §3, §4, §5, §6, §7, §8, §9, §10, §11

Test [10] relates to Pyricularia oryzae. It is filed as in vivo. Particulars: 500 ppm; rice plant blast, 24 hours + 7 days.
The test system of test [11] is Mycoplasma gallisepticum. The test can be described thus: minimum inhibition concentration. It counts as cell-based. Particulars: Mycoplasmoides gallisepticum, one range for the listed compounds.
Test [12] relates to Candida albicans. The experiment in a line: Test A-2 Anti-fungal Activity (MCC). The following applies: 48 h, read-out: MCC (Minimal Cidal Concentration).
Description: (§12) Some MCC (Minimal Cidal Concentration) values (Table 1) were obtained against Candida albicans and Trichophyton asteroides by the following method. After the MIC value was obtained by the microwell method, a loopful amount was picked up from the medium in which no growth of the fungus was observed, inoculated into a Subrouraud's glucose agar medium and incubated at 28° C. for 2 days in the case of C. albicans and for 7 days in the case of T. asteroides.
The test system of test [13] is Trichophyton asteroides. The test can be described thus: Test A-2 Anti-fungal Activity (MCC). Particulars: 168 h, read-out: MCC (Minimal Cidal Concentration).
Description: as §12

≈ marks a conversion by molar mass, not a printed value.

Turning to `IC#CCOc1noc2ccccc12` [3-(3-iodo-2-propynyloxy)benzisoxazole], the anti-fungal activity result in [1] is “has the same activity”.

As usually defined, the MIC is the smallest concentration in the dilution series that meets the test's criterion for growth inhibition. Lower therefore signals inhibition by little substance. For the molecule `Cc1noc(NCC#CI)c1C` [Comp. 19], the MIC in test [2] was 3.1 µg/mL (≈ 11.2 µM); in test [3] it was 0.8 µg/mL (≈ 2.9 µM); in test [4] it was 0.8 µg/mL (≈ 2.9 µM); in test [11], 6.25 to 12.5 µg/mL (≈ 22.6 to 45.3 µM). Further, the pest or weed control at 500 ppm in [5] is 100%. Further, the “Percent Disease Control” value in test [6] was 100%; in test [7], 78%; in [8], 100%; in test [9] it was 100%; in [10], 100%.

For the molecule `Cc1noc(N(C)CC#CI)c1C` [Comp. 20], the MIC in [2] was 0.8 µg/mL (≈ 2.76 µM); in [3], 0.8 µg/mL (≈ 2.76 µM); in [4], 0.8 µg/mL (≈ 2.76 µM); in test [11] it was 6.25 to 12.5 µg/mL (≈ 21.5 to 43.1 µM). Also, the pest or weed control at 500 ppm in test [5] was found to be 100%. The “Percent Disease Control” value was determined as 57% in [7], 100% in test [8], 100% in test [9] and 100% in test [10]. Moreover, the MFC was found to be 50 µg/mL (≈ 172 µM) in test [12] and 3.1 µg/mL (≈ 10.7 µM) in test [13].

As to `Cc1cc(OCC#CI)no1` [3-(3-iodo-2-propynyl)oxy-5-methylisoxazole], the anti-fungal activity result in test [1] was “anti-fungal and anti-septic agent for woods”.
